Results from patent US20010006697A1, “Composition and method for producing low cholesterol eggs” (priority 1997, published 2001).
Entries after “also recorded” stand apart in the source; their conditions may differ. Marks after values point to notes of the source that are not given here.

How the values were obtained:
[1] = tested on: laying hens; experiment: Yolk cholesterol contents of eggs from statin-treated laying hens; type: in vivo, White Leghorn hens; conditions: for less total yolk cholesterol than control eggs: week 2, per yolk
Protocol: Agric. […] Hens were treated as described in Example 1. […] The eggs were hard-cooked, and the yolks were separated, weighed, and crumbled. […] Agric. […] Egg homogenate filtrates were analyzed for cholesterol as described in Rudel, L. L. and Morris, M. D., J. Lipid Res. 14:364-366 (1973).

[2] = tested on: laying hens; experiment: Liver cholesterol content; conditions: day 35
[3] = tested on: laying hens; experiment: Egg production, egg weights and yolk weights of statin-treated laying hens; type: in vivo, White Leghorn hens
Protocol: Hens were treated as described in Example 1. Egg yolk was weighed as outlined in Example 2.

[4] = tested on: apolipoprotein B (apoB) mRNA; experiment: Northern blot of liver mRNA: apoB; type: in vivo, White Leghorn hens; conditions: normalized by 18S rRNA; day 35
Excerpt: Endocrinol. […] Endocrinol.

[5] = Liver weight of statin-treated laying hens; conditions: day 35
[6] = 0.03% of diet, Week 1, listed as atorvastatin
[7] = 0.06% of diet, Week 1, listed as atorvastatin
[8] = 0.06% of diet, week 5 (maximal reduction for simvastatin, lovastatin)
[9] = 0.03% of diet, Overall (weeks 1-5)
[10] = 0.06% of diet, Overall (weeks 1-5)

In the case of `CC(C)c1c(C(=O)Nc2ccccc2)c(-c2ccccc2)c(-c2ccc(F)cc2)n1CC[C@@H](O)C[C@@H](O)CC(=O)O` [Atorvastatin, (ΔR,δR)-2-(p-fluorophenyl)-β,δ-dihydroxy-5-isopropyl-3-phenyl-4-(phenylcarbamoyl)pyrrole-1-heptanoic acid], the “Yolk cholesterol content, mg cholesterol/g yolk” value ([1]; 0.03% of diet, Week 0) was 11.4 ± 0.3^a mg cholesterol/g yolk, the “Yolk cholesterol content, mg cholesterol/yolk” value ([1]; 0.03% of diet, Week 0) was 203.2 ± 7.7^a mg cholesterol/yolk and the “Yolk cholesterol content, mg cholesterol/g yolk” value ([1]; 0.03% of diet, Week 1) was 9.4 ± 0.3^c mg cholesterol/g yolk. For the same compound, the “Yolk cholesterol content, mg cholesterol/yolk” value ([1]; 0.03% of diet, Week 1) was 161.7 ± 5.5^b,c mg cholesterol/yolk, the “Yolk cholesterol content, mg cholesterol/g yolk” value [1, 6] was 9.4 mg cholesterol/g yolk and the “Yolk cholesterol content, mg cholesterol/yolk” value [1, 6] was 161.7 mg cholesterol/yolk. The “Yolk cholesterol content, mg cholesterol/g yolk” value ([1]; 0.03% of diet, Week 2) was 8.7 ± 0.2^e mg cholesterol/g yolk, the “Yolk cholesterol content, mg cholesterol/g yolk” value ([1]; 0.03% of diet, Week 3) was 8.6 ± 0.2^e mg cholesterol/g yolk and the “Yolk cholesterol content, mg cholesterol/yolk” value ([1]; 0.03% of diet, Week 3) was 143.7 ± 3.3^c mg cholesterol/yolk. The “Yolk cholesterol content, mg cholesterol/g yolk” value ([1]; 0.03% of diet, Week 4) was 8.3 ± 0.1^d mg cholesterol/g yolk, the “Yolk cholesterol content, mg cholesterol/yolk” value ([1]; 0.03% of diet, Week 4) was 134.4 ± 2.2^c mg cholesterol/yolk and the “Yolk cholesterol content, mg cholesterol/g yolk” value ([1]; 0.03% of diet, Week 5) was 8.2 ± 0.2^d mg cholesterol/g yolk. For the same compound, the “Yolk cholesterol content, mg cholesterol/yolk” value ([1]; 0.03% of diet, Week 5) was 137.2 ± 3.8^d mg cholesterol/yolk, the “Yolk cholesterol content, mg cholesterol/yolk” value ([1]; 0.03% of diet, Week 5, listed as atorvastatin) was 137.2 mg cholesterol/yolk and the “Yolk cholesterol content, mg cholesterol/g yolk” value ([1]; 0.06% of diet, Week 0) was 11.3 ± 0.3^a mg cholesterol/g yolk. The “Yolk cholesterol content, mg cholesterol/yolk” value ([1]; 0.06% of diet, Week 0) was 191.9 ± 7.3^a mg cholesterol/yolk, the “Yolk cholesterol content, mg cholesterol/g yolk” value ([1]; 0.06% of diet, Week 1) was 9.3 ± 0.2^c mg cholesterol/g yolk and the “Yolk cholesterol content, mg cholesterol/yolk” value ([1]; 0.06% of diet, Week 1) was 149.7 ± 3.8^c mg cholesterol/yolk. For the same compound, the “Yolk cholesterol content, mg cholesterol/g yolk” value [1, 7] was 9.3 mg cholesterol/g yolk, the “Yolk cholesterol content, mg cholesterol/yolk” value [1, 7] was 149.7 mg cholesterol/yolk and the “Yolk cholesterol content, mg cholesterol/g yolk” value ([1]; 0.06% of diet, Week 2) was 7.8 ± 0.3^f mg cholesterol/g yolk. The “Yolk cholesterol content, mg cholesterol/yolk” value ([1]; 0.06% of diet, Week 2) was 105.3 ± 4.3^d mg cholesterol/yolk, the “Yolk cholesterol content, mg cholesterol/yolk” value ([1]; 0.06% of diet, Week 2, listed as atorvastatin) was 105.3 mg cholesterol/yolk and the “Yolk cholesterol content, mg cholesterol/g yolk” value ([1]; 0.06% of diet, Week 3) was 7.5 ± 0.1^f mg cholesterol/g yolk. The “Yolk cholesterol content, mg cholesterol/yolk” value ([1]; 0.06% of diet, Week 3) was 104.0 ± 3.7^d mg cholesterol/yolk, the “Yolk cholesterol content, mg cholesterol/g yolk” value ([1]; 0.06% of diet, Week 4) was 7.5 ± 0.1^e mg cholesterol/g yolk and the “Yolk cholesterol content, mg cholesterol/yolk” value ([1]; 0.06% of diet, Week 4) was 104.2 ± 2.3^d mg cholesterol/yolk. For the same compound, the “Yolk cholesterol content, mg cholesterol/g yolk” value ([1]; 0.06% of diet, Week 5) was 7.6 ± 0.2^d mg cholesterol/g yolk, the “yolk cholesterol reduction from control on a per yolk (egg) basis” value [1, 8] was 46% and the “yolk cholesterol reduction from control per g of yolk (mg/g basis)” value [1, 8] was 35%. The “less total yolk cholesterol than control eggs” value ([1]; high dose (0.06%)) was 45%, the “less total yolk cholesterol than control eggs” value ([1]; low dose (0.03%)) was 27% and the “Liver Cholesterol mg/g liver” value ([2]; 0.03% of diet) was 2.8 ± 0.05^c mg/g liver. For the same compound, the “Liver Cholesterol mg/liver” value ([2]; 0.03% of diet) was 87.4 ± 2.2^a mg/liver, the “Liver Cholesterol mg/g liver” value ([2]; 0.06% of diet) was 2.5 ± 0.07^d mg/g liver and the “Liver Cholesterol mg/liver” value ([2]; 0.06% of diet) was 89.7 ± 5.2^a mg/liver. The “Egg weight, g” value [3, 9] was 61.3 ± 1.0^a,b (132) g, the “Hen-day egg production, %” value [3, 9] was 75.4 ± 4.1^b,c (132) % and the “Yolk weight, g” value [3, 9] was 16.6 ± 0.1^a (25) g. For the same compound, the “Egg weight, g” value ([3]; 0.03% of diet, Week 1) was 63.0 ± 0.7^a g, the “Hen-day egg production, %” value ([3]; 0.03% of diet, Week 1) was 82.9 ± 1.8^c,d % and the “Yolk weight, g” value ([3]; 0.03% of diet, Week 1) was 17.2 ± 0.3^a g. The “Egg weight, g” value ([3]; 0.03% of diet, Week 2) was 61.2 ± 0.8^c,d g, the “Hen-day egg production, %” value ([3]; 0.03% of diet, Week 2) was 68.6 ± 1.0^c % and the “Yolk weight, g” value ([3]; 0.03% of diet, Week 2) was 16.2 ± 0.3^a g. For the same compound, the “Egg weight, g” value ([3]; 0.03% of diet, Week 3) was 60.5 ± 0.8^c g, the “Hen-day egg production, %” value ([3]; 0.03% of diet, Week 3) was 80.0 ± 2.0^b % and the “Yolk weight, g” value ([3]; 0.03% of diet, Week 3) was 16.7 ± 0.4^a g. The “Hen-day egg production, %” value ([3]; 0.03% of diet, Week 4) was 77.1 ± 1.2^c %, the “Yolk weight, g” value ([3]; 0.03% of diet, Week 4) was 16.2 ± 0.2^b g and the “Egg weight, g” value ([3]; 0.03% of diet, Week 5) was 61.0 ± 0.7^b g. For the same compound, the “Hen-day egg production, %” value ([3]; 0.03% of diet, Week 5) was 77.1 ± 1.2^c,d %, the “Yolk weight, g” value ([3]; 0.03% of diet, Week 5) was 16.6 ± 0.3^a g and the “Egg weight, g” value [3, 10] was 58.9 ± 0.9^b (121) g. For the same compound, the “Hen-day egg production, %” value [3, 10] was 69.1 ± 3.5^c (121) %, the “Yolk weight, g” value [3, 10] was 14.3 ± 0.2^b (25) g and the “Egg weight, g” value ([3]; 0.06% of diet, Week 1) was 63.6 ± 0.8^a g. For the same compound, the “Hen-day egg production, %” value ([3]; 0.06% of diet, Week 1) was 82.9 ± 1.0^c,d %, the “Yolk weight, g” value ([3]; 0.06% of diet, Week 1) was 16.1 ± 0.3^a g and the “Egg weight, g” value ([3]; 0.06% of diet, Week 2) was 59.5 ± 1.0^d g. For the same compound, the “Hen-day egg production, %” value ([3]; 0.06% of diet, Week 2) was 60.0 ± 1.8^d %, the “Yolk weight, g” value ([3]; 0.06% of diet, Week 2) was 13.4 ± 0.3^b g and the “Egg weight, g” value ([3]; 0.06% of diet, Week 3) was 56.9 ± 0.7^d g. For the same compound, the “Hen-day egg production, %” value ([3]; 0.06% of diet, Week 3) was 68.6 ± 1.8^c %, the “Yolk weight, g” value ([3]; 0.06% of diet, Week 3) was 13.9 ± 0.5^b g and the “Egg weight, g” value ([3]; 0.06% of diet, Week 4) was 56.8 ± 0.7^e g. The “Hen-day egg production, %” value ([3]; 0.06% of diet, Week 4) was 68.6 ± 1.8^d %, the “Yolk weight, g” value ([3]; 0.06% of diet, Week 4) was 13.9 ± 0.3^c g and the “Egg weight, g” value ([3]; 0.06% of diet, Week 5) was 57.8 ± 0.7^c g. The “Hen-day egg production, %” value ([3]; 0.06% of diet, Week 5) was 74.3 ± 1.0^d %, the “Yolk weight, g” value ([3]; 0.06% of diet, Week 5) was 14.2 ± 0.4^b g and the “decrease in yolk weight” value ([3]; 0.06% of diet, Week 5) was 19%. For the same compound, the “hepatic apoB mRNA, linear contrasts (P≦0.05)” value [4] was “atorvastatin>lovastatin; also recorded: atorvastatin>simvastatin”, the “Liver Weight g” value ([5]; 0.03% of diet) was 30.9 ± 1.2^b g and the “Liver Weight g/100 g BW” value ([5]; 0.03% of diet) was 1.82 ± 0.05^a,b g/100 g BW. For the same compound, the “Liver Weight g” value ([5]; 0.06% of diet) was 35.3 ± 2.3^a g and the “Liver Weight g/100 g BW” value ([5]; 0.06% of diet) was 2.02 ± 0.09^a g/100 g BW.
